Marks after values point to notes of the source that are not given here. Values belong to the compound of their own block, whether it stands above or below them.
Legend:
[1] = Serum bottle test: medium pH after treatment; assay type: physicochemical
Description: (§1) The test protocol was as follows: 100 mL serum bottles were filled with synthetic nutrient medium, then stoppered, capped, and autoclaved, and allowed to cool to at least 35C. Using a 1 mL syringe with needle, the treatment was added at desired dosages to prepared serum bottles (triplicates of each dosage). No treatment was added for baseline controls. At least 6 baseline serum bottles were used. Using a 1 mL syringe with needle, 0.1 mL of prepared culture was added to each serum bottle.
(§2) Next, a 10^10 cells/ml concentration of the sulfate reducers was prepared (using autoclaved synthetic nutrient medium) inside an anaerobic chamber. Using a 1 ml syringe with needle, 0.1 ml of the prepared sulfate reducers culture was added to each serum bottle. The bottles were then incubated at the desired temperature.
(§3) The baseline dissolved sulfide levels were then measured to determine if the samples were ready for efficacy analysis. Using a 30 mL syringe with needle, 30 mL of sample was removed from each serum bottle. About 25 mL of the sample was added to a 30 mL bottle containing 0.125 mL zinc acetate solution, followed by adding 1 mL of 1N NaOH. The sulfide in the fixed sample was then measured. The remaining 5 mL of sample in the syringe was used for pH determination. Separate field studies were also conducted.

[2] = system: sulfate reducing bacteria (SRB); test: Serum bottle test: SRB growth after treatment (toxicity); assay type: cell-based, sulfate reducers
Description: as §1, §2, §3

[3] = system: microorganisms (PetriFilm Count); test: Serum bottle test: PetriFilm count after treatment (toxicity); assay type: cell-based
Description: as §1, §2, §3

[4] = system: real municipal wastewater; test: H2S inhibition using real municipal wastewater, Field Study 1
[5] = system: real municipal wastewater; test: H2S inhibition using real municipal wastewater, Field Study 2
[6] = scavenger dosage 200 ppm active
[7] = Field Study 1, scavenger dosage 10 ppm active
[8] = Field Study 2, scavenger dosage 10 ppm active

SMILES: O=CCCCC=O [Glutaraldehyde, reference compound]
Medium pH after Treatment [1, 6]: 7.5 | SRB Growth after Treatment [2, 6]: 0 | PetriFilm Count after Treatment [3, 6]: 0

SMILES: O=CC=O [Glyoxal, glyoxal]
Medium pH after Treatment ([1]; scavenger dosage 8 ppm active): 6.5 | SRB Growth after Treatment ([2]; scavenger dosage 8 ppm active): 10^8 | PetriFilm Count after Treatment ([3]; scavenger dosage 8 ppm active): 8.3 × 10^8 | Head Space H2S ([4]; Field Study 1, scavenger dosage 0.3 ppm active): 27 ppm | Head Space H2S ([4]; Field Study 1, scavenger dosage 3.8 ppm active): 8 ppm | Head Space H2S ([4]; Field Study 1, scavenger dosage 6.0 ppm active): 7 ppm | Head Space H2S ([4]; Field Study 1, scavenger dosage 8 ppm active): 2 ppm | Head Space H2S [4, 7]: 0.5 ppm | Head Space H2S ([5]; Field Study 2, scavenger dosage 0.5 ppm active): 47 ppm | Head Space H2S ([5]; Field Study 2, scavenger dosage 4.0 ppm active): 12 ppm | Head Space H2S ([5]; Field Study 2, scavenger dosage 6.0 ppm active): 0.1 ppm | Head Space H2S ([5]; Field Study 2, scavenger dosage 8.0 ppm active): 0.1 ppm | Head Space H2S [5, 8]: 5.0* ppm

SMILES: O=[N+]([O-])[O-].O=[N+]([O-])[O-].[Mg+2] [Mg(NO3)2, magnesium nitrate, reference compound]
Head Space H2S [4, 7]: 27 ppm | Head Space H2S [5, 8]: 47 ppm

Medium pH after Treatment ([1]; scavenger dosage 8 ppm active): 6.5
SMILES: c1ncncn1 [Triazine, triazine]
SRB Growth after Treatment ([2]; scavenger dosage 8 ppm active): 10^8 | PetriFilm Count after Treatment ([3]; scavenger dosage 8 ppm active): 5.5 × 10^8

Reference: patent US7255796B2, “Method of preventing hydrogen sulfide odor generation in an aqueous medium” (General Electric Company, priority 2004, dated 2007)
